Assay results reported in ChEMBL document CHEMBL4385667, “Phosphoramidate derivates as controlled-release prodrugs of l-Dopa” (Bioorg Med Chem Lett, 2019).

Key:
Assay type in all cases: physicochemical
[1] = Stability in pH 7.4 buffer assessed as half life at 37 degC by 31P NMR analysis; conditions: for half-life: pH 7.4 buffer
[2] = Stability in pH 7.4 buffer assessed as rate constant of compound hydrolysis at 37 degC by 31P NMR analysis
[3] = Stability in pH 3 buffer assessed as half life at 37 degC by 31P NMR analysis
[4] = Stability in pH 3 buffer assessed as rate constant of compound hydrolysis at 37 degC by 31P NMR analysis
[5] = Stability in pH 7.4 buffer assessed as compound hydrolysis measured over 8 hrs at 37 degC by 31P NMR analysis; conditions: pH 7.4, 8 h

Row | Structure (SMILES) | half-life [1] | K [2] | half-life [3] | K [4] | Stability [5] | t1/2 ([1]; buffer)
1 | CCOC(=O)[C@@H](NC(C)=O)[C@@H](C)OP(=O)([O-])N[C@@H](Cc1ccc(O)c(O)c1)C(=O)[O-].[K+].[K+] | > 8 h | Stable | 5.5 h | 1.2 ×10⁻¹ /hr | Stable | –
2 | CC(=O)N[C@H](C(=O)[O-])[C@@H](C)OP(=O)([O-])N[C@@H](Cc1ccc(O)c(O)c1)C(=O)[O-].[K+].[K+].[K+] | 0.92 h | 7.2 ×10⁻¹ /hr | < 0.0833 h | Unstable | – | –
3 | CC(=O)N[C@@H](COP(=O)([O-])N[C@@H](Cc1ccc(O)c(O)c1)C(=O)[O-])C(=O)[O-].[K+].[K+].[K+] | – | 7 ×10⁻² /hr | < 0.0833 h | Unstable | – | 9.9 h
4 | CC(=O)NCCOP(=O)([O-])N[C@@H](Cc1ccc(O)c(O)c1)C(=O)[O-].[K+].[K+] | > 8 h | Stable | 1.7 h | 4 ×10⁻¹ /hr | Stable | –
5 | CC(=O)N[C@@H](COP(=O)([O-])NCCc1ccc(O)c(O)c1)C(=O)[O-].[K+].[K+] | 12.1 h | 5.7 ×10⁻² /hr | < 0.0833 h | Unstable | – | –
6 | CCOC(=O)[C@H](COP(=O)([O-])N[C@@H](Cc1ccc(O)c(O)c1)C(=O)[O-])NC(C)=O.[K+].[K+] | > 8 h | Stable | 2.7 h | 2.5 ×10⁻¹ /hr | Stable | –

Further lines, results first:

Row | half-life [1] | K [2] | half-life [3] | K [4] | Stability [5] | t1/2 ([1]; buffer) | Structure (SMILES)
7 | < 0.0833 h | Unstable | < 0.0833 h | Unstable | – | – | O=C([O-])CCOP(=O)([O-])N[C@@H](Cc1ccc(O)c(O)c1)C(=O)[O-].[K+].[K+].[K+]
8 | > 8 h | Stable | 1.2 h | 5.4 ×10⁻¹ /hr | Stable | – | O=C([O-])CCCOP(=O)([O-])N[C@@H](Cc1ccc(O)c(O)c1)C(=O)[O-].[K+].[K+].[K+]
9 | > 8 h | Stable | 1.7 h | 4 ×10⁻¹ /hr | Stable | – | CCOC(=O)CCOP(=O)([O-])N[C@@H](Cc1ccc(O)c(O)c1)C(=O)[O-].[K+].[K+]
